Experimental data as given in patent US8703424B2, “Predicting human developmental toxicity of pharmaceuticals using human stem-like cells and metabolomics” (Stemina Biomarker Discovery, Inc., priority 2010, dated 2014).

Experiments:
WA09 hESCs = assay: Random forest prediction of teratogenicity from metabolomics of spent media of dosed hESCs; format: cell-based, human; settings: blind study; model trained on TS1, 142 mass features; circulating dose
WA09 hES cells = assay: Pathway enrichment analysis of annotated mass features on KEGG human metabolic networks (Example 8); format: cell-based; settings: across dose levels; positive and negative features
Procedure: Pathways enrichment analysis was performed by mapping annotated mass features for each experimental compound to human metabolic networks using KEGG compound ids. Hypergeometric p-values and false discovery rates (FDR) were used to assign a quantitative measure of statistical significance to each network. Features derived from ESI negative and positive mode for each experimental compound were pooled for this analysis. False positive results can be generated by isobaric compounds that generate multiple “hits” in a network from the same mass, so unique masses instead of unique compound ids were used for these calculations. The relevant parameters used to calculate hypergeometric p-values for each network were: the number of unique mass “hits”, the number of unique masses in the network, and the total number of unique masses in all of the human networks in the KEGG database. For each experimental compound, the p-values for the derived networks were converted to FDR using the Benjamini and Hochberg (1995) correction.
Feature Selection was performed on a per compound basis using a one-way anova evaluating the difference of dose level means and on a per dose basis using Welch T-tests and PLS-DA VIP score. […] If a feature was selected as interesting in a drug or dose level comparison it was then evaluated experiment wide for fold changes. Following feature selection only significant features putatively annotated as mammalian in origin and present on KEGG network diagrams were further evaluated. […] These selection criteria focused the analysis on biochemical pathways.
Following selection, features were passed through a quality control evaluation of extracted ion chromatograms (EICs) to confirm the validity of individual mass features. Features passing quality control were further evaluated to confirm estimated fold changes. After removing poor quality and duplicate features, the remaining ESI positive and ESI negative mode features were combined into a unified dataset for evaluation of pathway enrichment by treatment.

Compound: CN(C)CCOC(C)(c1ccccc1)c1ccccn1 (stereo not shown) [Doxylamine]
- Predicted teratogenicity (random forest statistical model) (WA09 hESCs): Non
- Number of unique KEGG ID annotations: Alanine, aspartate and glutamate metabolism (WA09 hES cells): 1
- Number of unique KEGG ID annotations: Arginine and proline metabolism (WA09 hES cells): 1
- Number of unique KEGG ID annotations: Ascorbate and aldarate metabolism (WA09 hES cells): 2
- Number of unique KEGG ID annotations: Citrate cycle (TCA cycle) (WA09 hES cells): 1
- Number of unique KEGG ID annotations: Cysteine and methionine metabolism (WA09 hES cells): 2
- Number of unique KEGG ID annotations: Galactose metabolism (WA09 hES cells): 2
- Number of unique KEGG ID annotations: Glutathione metabolism (WA09 hES cells): 1
- Number of unique KEGG ID annotations: Glyoxylate and dicarboxylate metabolism (WA09 hES cells): 3
- Number of unique KEGG ID annotations: Nicotinate and nicotinamide metabolism (WA09 hES cells): 5
- Number of unique KEGG ID annotations: Pantothenate and CoA biosynthesis (WA09 hES cells): 3
- Number of unique KEGG ID annotations: Pentose and glucuronate interconversions (WA09 hES cells): 3
- Number of unique KEGG ID annotations: Pentose phosphate pathway (WA09 hES cells): 1
- Number of unique KEGG ID annotations: Propanoate metabolism (WA09 hES cells): 3
- Number of unique KEGG ID annotations: Pyruvate metabolism (WA09 hES cells): 6
- Number of unique KEGG ID annotations: Vitamin B6 metabolism (WA09 hES cells): 3
